Laboratory results from patent US12187672B2, “1,2-diacylglycerol compound, preparation method therefor, and immunomodulator containing same as active ingredient” (ENZYCHEM LIFESCIENCES CORPORATION, priority 2018, dated 2025).

Legend:
STAT6 = assay: IL-4-induced STAT6 activity, pGL4-STAT6 luciferase reporter in A549 cells; format: cell-based; conditions: sample 100 μg/ml 1 h, then IL-4 (2 ng/ml) 20 h, Table 9
Experimental: In DMEM (Dulbecco Modified Eagle Medium, Hyclone, Thermo Scientific) medium to which 10% Fetal Bovine Serum was added, A549 cells were subcultured at a concentration of 1×10^5 cells/ml, and culture was conducted in a 5% CO2 humidified incubator at 37° C. The cultured A549 cells were inoculated into a 48 well plate by 1×10^5 cells/ml and stabilized for 18 hours. Thereafter, pGL4-STAT6 reporter vector containing a STAT6 binding promoter portion was mixed with Attractene to induce complex formation at room temperature for 15 minutes. This complex was treated with the cells and then further incubated for 24 hours. Thereafter, the culture solution was treated with a glycerol derivative compounds of the type shown in Table 9 and 10 below for 1 hour, and then IL-4 (2 ng/ml or 10 ng/ml) was further incubated for 20 hours for STAT6 activity. Thereafter, the culture supernatant was removed for each well, and the remaining cells were lysed with a cell lysis buffer, and then cell lysate was recovered. 90 μl of luciferase reagent was mixed with 10 μl of the recovered cell lysate, and the degree of fluorescence was confirmed using a luminometer. The results are shown in Table 9, Table 10, FIG. 9 and FIG. 10 below.

CXCL8 (IL-8) = CXCL8 (IL-8) expression reduction in Gemcitabine-treated THP-1 cells (ELISA); format: cell-based, human; conditions: THP-1 cells; for CXCL8 [IL-8] concentration (average ± deviation): sample 100 μg/ml 1 h, then Gemcitabine 2 μg/ml 24 h
Experimental: In RPMI (Hyclone, Thermo Scientific) medium to which 10% Fetal Bovine Serum was added, THP-1 cells, a human macrophage family, were suspended at a concentration of 1×10^5 cells/ml, and culture was conducted in a 5% CO2 humidified incubator at 37° C. The cultured THP-1 cells were inoculated into a 12 well plate by 1×10^6 cells/ml and stabilized for 30 minutes. Then, the culture solution was treated with a glycerol derivative compounds of the type shown in Table 6 below for 1 hour and then was treated with Gemcitabine (2 μg/ml) of a cell stimulator, and subsequent further incubation was conducted for 24 hours. Thereafter 1.5 ml of the culture supernatant was collected for each well and centrifuged (at 3000 rpm, 5 minutes) to recover the supernatant. The CXCL8 (IL-8) level in the recovered supernatant was measured according to the manual provided by the human IL-8 ELISA set (BD Biosciences). The day before ELISA was carried out, the IL-8 capture antibody was diluted in phosphate buffered saline, coated on a microwell, and then stored at 4° C. overnight. Each well was washed three times with a buffer solution and then blocked with 2% Bovine Serum Albumin (BSA) for 1 hour at room temperature. After washing with washing buffer solution three times, 100 μl of sample was dispensed into each well and left at room temperature for 2 hours. Detection antibody which was washed 3 times with washing buffer and diluted was dispensed into each well and allowed to react at room temperature for 1 hour and left at room temperature for 1 hour. Thereafter, the secondary HRP conjugated antibody was reacted at room temperature for 30 minutes, washed three times with a washing buffer, and treated with 50 μl of stop solution for each well, and then the optical density was measured at 450 nm with an ELISA microplate leader.

STAT3 = assay: IL-6-induced STAT3 activity, SEAP expression in HEK-Blue IL-6 cells; format: cell-based; conditions: HEK-Blue IL-6 cells; for STAT3 activity_SEAP expression(%) (average ± deviation): sample 100 μg/ml 1 h, then IL-6 5 ng/ml 24 h, negative control = 100
Experimental: HEK-Blue™ IL-6 cells were used to confirm STAT3 activity by STAT3-induced SEAP (secreted embryonic alkaline phosphatase) expression. In DMEM (Hyclone, Thermo Scientific) medium to which 10% Fetal Bovine Serum was added, HEK-Blue™ IL-6 cells were cultured at a concentration of 1×10^5 cells/ml, and maintained in a 5% CO2 humidified incubator at 37° C. The cultured HEK-Blue™ IL-6 cells were inoculated by 1×10^5 cells/ml. Then, the culture solution was treated with a glycerol derivative compounds of the type shown in Table 4 below for 1 hour and then IL-6 (5 ng/ml) was further incubated for 24 hours for STAT3 activity. Thereafter, the culture supernatant was collected for each well and centrifuged (at 3000 rpm, 5 minutes) to recover the supernatant. The SEAP expression level in the recovered supernatant was mixed with Quanti blue reagent and the supernatant at a ratio of 1:10 and left at 37° C. for about 30 minutes. Then, the SEAP concentration was confirmed at 650 nm wavelength using a spectrophotometer, and the results (STAT3 activity inhibitory ability) thereof are shown in Table 4 and FIG. 3 below.

IL-6 = assay: LPS-induced IL-6 secretion reduction in RAW264.7 cells (ELISA); format: cell-based, mouse; conditions: sample 100 μg/ml 1 h, then LPS 1 μg/ml 24 h, Table 2
Experimental: In DMEM (Dulbecco Modified Eagle Medium, Hyclone, Thermo Scientific) medium to which 10% Fetal Bovine Serum was added, RAW264.7 cells, a mouse macrophage family, were suspended at a concentration of 1×10^5 cells/ml, and culture was conducted in a 5% CO2 humidified incubator at 37° C. The cultured RAW264.7 cells were inoculated into a 48 well plate by 5×10^4 cells/ml and stabilized for 15 hours. Then, the culture solution was treated with a glycerol derivative compounds of the type shown in Table 2 and 3 below for 1 hour and then was treated with 1 μg/ml of Lipopolysaccaride (LPS) of a cell stimulator, and subsequent further incubation was conducted for 24 hours. Thereafter 0.5 ml of the culture supernatant was collected for each well and centrifuged (at 3000 rpm, 5 minutes) to recover the supernatant. The IL-6 level in the recovered supernatant was measured according to the manual provided by the Mouse IL-6 ELISA set (BD Biosciences). The day before ELISA was carried out, the IL-6 capture antibody was diluted in phosphate buffered saline, coated on a microwell, and then stored at 4° C. overnight. Each well was washed three times with a buffer solution and then blocked with 2% Bovine Serum Albumin (BSA) for 1 hour at room temperature. After washing with buffer solution three times, […] of sample was dispensed into each well and left at room temperature for 2 hours. Detection antibody which was washed 3 times with washing buffer solution and diluted was dispensed into each well and allowed to react at room temperature for 1 hour and left at room temperature for 1 hour. Thereafter, the secondary HRP conjugated antibody was reacted at room temperature for 30 minutes, washed three times with a buffer solution, and treated with 50 μl of stop solution for each well, and then the optical density was measured at 450 nm with an ELISA microplate leader. The results of the IL-6 expression reduction rate (IL-6 concentration) are shown in Table 2, Table 3, FIG. 1 and FIG. 2 below.

HL-60 cells = assay: Migration of HL-60 cell line toward THP-1 culture supernatant (transmigration assay); format: cell-based, human; conditions: supernatant of THP-1 cells treated with sample 100 μg/ml 1 h, then Gemcitabine 2 μg/ml 24 h
Experimental: In RPMI (Hyclone, Thermo Scientific) medium to which 10% Fetal Bovine Serum was added, THP-1 cells, a human macrophage family, were subcultured at a concentration of 1×10^5 cells/ml, and culture was conducted in a 5% CO2 humidified incubator at 37° C. In order to prepare the THP-1 cell culture solution to be treated in the lower well during the transmigration assay, first, the cultured THP-1 cells were inoculated into a 12 well plate by 1×10^6 cells/ml and stabilized for 30 minutes. Then, the culture solution was treated with a glycerol derivative compounds of the type shown in Table 7 below for 1 hour and then was treated with Gemcitabine (2 μg/ml) of a cell stimulator, and subsequent further incubation was conducted for 24 hours. Thereafter 1.5 ml of the culture supernatant was collected for each well and centrifuged (at 3000 rpm, 5 minutes) to recover the supernatant. The CXCL8 (IL-8) level in the recovered supernatant was measured according to the manual provided by Cultrex 96 well Laminin Cell Invasion assay. The day before Transmigration assay was carried out, a 1× Lamin I solution was treated in the upper Invasion Chamber and coated. Thereafter, in RPMI (Hyclone, Thermo Scientific) medium to which 10% Fetal Bovine Serum was added, the cultured HL-60 cells were despensed of 5×10^4 cells/chamber, and 150 μl of the THP-1 culture supernatant prepared in advance was added to the lower chamber. Thereafter the upper chamber was removed, and the cells were attached to the bottom of the lower chamber by a centrifuge, and then the supernatant was removed. Cell dissociation/Calcein-AM solution was added and reacted for 1 hour. Then, the value obtained using a fluorescence spectroscopy was calculated by converting the number of cells.

IL-4 = assay: PKC activator-induced IL-4 secretion reduction in EL-4 cells (ELISA); format: cell-based, mouse; conditions: sample 100 μg/ml 2 h, then PKC activator 18 h, Table 11
Experimental: In DMEM (Dulbecco Modified Eagle Medium, Hyclone, Thermo Scientific) medium to which 10% Fetal Bovine Serum was added, EL-4 cells, a mouse lymphoma family, were subcultured at a concentration of 1×10^5 cells/ml, and culture was conducted in a 5% CO2 humidified incubator at 37° C. The cultured EL-4 cells were inoculated into a 48 well plate by 5×10^4 cells/ml and stabilized for 30 hours. Then, the culture solution was treated with a glycerol derivative compounds of the type shown in Table 11 and 12 below for 2 hours. Thereafter, it were treated with 0.5 μg/ml of PKC activator (p10, some kind of PMA) of a cell stimulator, and subsequent further incubation were conducted for 18 hours. Thereafter 0.5 ml of the culture supernatant was collected for each well and centrifuged (at 3000 rpm, 5 minutes) to recover the supernatant. The IL-4 level in the recovered supernatant was measured according to the manual provided by the Mouse IL-4 ELISA set (BD Biosciences). The day before ELISA was carried out, the IL-4 capture antibody was diluted in phosphate buffered saline, coated on a microwell, and then stored at 4° C. overnight. Each well was washed three times with a buffer solution and then blocked with 2% Bovine Serum Albumin (BSA) for 1 hour at room temperature. After washing with buffer solution three times, 100 μl of sample was dispensed into each well and left at room temperature for 2 hours. Detection antibody which was washed 3 times with washing buffer solution and diluted was dispensed into each well and allowed to react at room temperature for 1 hour and left at room temperature for 1 hour. Thereafter, the secondary HRP conjugated antibody was reacted at room temperature for 30 minutes, washed three times with buffer solution, and treated with 50 μl of stop solution for each well, and then the optical density was measured at 450 nm with an ELISA microplate leader. The results of the measured expression reduction rate ([…]) were shown in Table 11, Table 12, FIG. 11 and FIG. 12 below.

SMILES	STAT6 activity_Luciferase activity (average ± deviation) (STAT6)	reduction of CXCL8 (IL-8) expression/secretion (CXCL8 (IL-8); Gemcitabine-treated, 100 μg/ml)	CXCL8 [IL-8] concentration (average ± deviation) (CXCL8 (IL-8)) [pg/µL]	decrease of STAT3 activity compared to the IL-6 cytokine-treated group (STAT3; 100 μg/ml)	STAT3 activity_SEAP expression(%) (average ± deviation) (STAT3)	IL-6 concentration (average ± deviation) (IL-6) [µg/mL]	Number of HL-60 cells migrated through Transwell (HL-60 cells) [Cell Number]	IL-4 concentration (average ± deviation) (IL-4) [pg/µL]
CCCCC/C=C\C/C=C\CCCCCCCC(=O)OC(COC(=O)CCCC)COC(=O)CCCCCCCCCCCCCCC (centres unmarked) [EC_A18]	1189.2 ± 174.7	about 20%	84.0 ± 1.8	about 25%	166.2 ± 29.6	0.147 ± 0.003	9891.6	–
CCCCC/C=C\C/C=C\CCCCCCCC(=O)OC(COC(=O)CCCCCCCCCCCCCCC)COC(=O)C(C)C (centres unmarked) [EC_A19]	898.7 ± 115.9	–	277.9 ± 3.1	–	162.9 ± 33.2	0.204 ± 0.014	14882.8	–
CCCCC/C=C\C/C=C\CCCCCCCC(=O)OC(COC(=O)CCCCCCCCCCCCCCC)COC(C)OC (centres unmarked) [EC_A70-1]	–	–	200.1 ± 1.0	–	259.5 ± 28.4	0.144 ± 0.028	4047.1	865.6 ± 127.9
